# Results as given in patent publication US7792665B2, “Method for designing a compound based on the three dimensional structure of phosphoinositide dependent protein kinase 1 (PDK1)” (Medical Research Council, priority 2002, dated 2010).
# Changes are numbered by the printed parent chain. Entries after “also recorded” stand apart in the source; their conditions may differ.
# Assays:
# SGK1 = SGK1 (Homo sapiens, UniProt O00141); test: Kinase panel assay, SGK1; type: biochemical; settings: 1 μM inhibitor, 0.1 mM ATP, average of triplicate
# CHK1 = target: T1, CHK1 (Homo sapiens, UniProt O14757); test: Kinase panel assay, CHK1; type: biochemical; settings: 1 μM inhibitor, 0.1 mM ATP, average of triplicate
# T1 sequence (O14757 1-476): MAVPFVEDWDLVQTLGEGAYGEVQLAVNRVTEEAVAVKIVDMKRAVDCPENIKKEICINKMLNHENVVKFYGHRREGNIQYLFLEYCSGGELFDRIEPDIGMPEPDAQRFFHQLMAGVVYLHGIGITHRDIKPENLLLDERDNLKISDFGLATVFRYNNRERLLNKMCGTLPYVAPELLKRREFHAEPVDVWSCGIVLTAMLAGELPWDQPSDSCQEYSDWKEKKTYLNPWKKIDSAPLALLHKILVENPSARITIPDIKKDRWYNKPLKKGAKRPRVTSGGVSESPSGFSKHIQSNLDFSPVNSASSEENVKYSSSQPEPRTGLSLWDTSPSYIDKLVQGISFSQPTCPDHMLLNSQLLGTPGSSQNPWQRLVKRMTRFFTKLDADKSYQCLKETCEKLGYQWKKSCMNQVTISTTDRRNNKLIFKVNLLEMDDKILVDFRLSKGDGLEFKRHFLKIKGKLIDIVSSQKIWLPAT
# MAPKAP-K1a = MAPKAP-K1a (Homo sapiens, UniProt Q15418); test: Kinase panel assay, MAPKAP-K1a; type: biochemical; settings: 1 μM inhibitor, 0.1 mM ATP, average of triplicate
# SAPK4/p38δ = SAPK4/p38δ (Homo sapiens, UniProt O15264); test: Kinase panel assay, SAPK4/p38δ; type: biochemical; settings: 1 μM inhibitor, 0.1 mM ATP, average of triplicate
# ROCK-II = ROCK-II (Homo sapiens, UniProt O75116); test: Kinase panel assay, ROCK-II; type: biochemical; settings: 1 μM inhibitor, 0.1 mM ATP, average of triplicate
# CK2 = CK2 (Homo sapiens, UniProt P68400); test: Kinase panel assay, CK2; type: biochemical; settings: 1 μM inhibitor, 0.1 mM ATP, average of triplicate
# CSK = CSK (Homo sapiens, UniProt P41240); test: Kinase panel assay, CSK; type: biochemical; settings: 1 μM inhibitor, 0.1 mM ATP, average of triplicate
# JNKSAPK1c = JNKSAPK1c (Homo sapiens, UniProt P45983); test: Kinase panel assay, JNKSAPK1c; type: biochemical; settings: 1 μM inhibitor, 0.1 mM ATP, average of triplicate
# SAPK2α/p38 = SAPK2α/p38 (Homo sapiens, UniProt Q16539); test: Kinase panel assay, SAPK2α/p38; type: biochemical; settings: 1 μM inhibitor, 0.1 mM ATP, average of triplicate
# MSK1 = MSK1 (Homo sapiens, UniProt O75582); test: Kinase panel assay, MSK1; type: biochemical; settings: 1 μM inhibitor, 0.1 mM ATP, average of triplicate
# PRAK = PRAK (Homo sapiens, UniProt Q8IW41); test: Kinase panel assay, PRAK; type: biochemical; settings: 1 μM inhibitor, 0.1 mM ATP, average of triplicate
# CK1 = test: Kinase panel assay, CK1; type: biochemical; settings: 1 μM inhibitor, 0.1 mM ATP, average of triplicate
# PKBΔPH = PKBΔPH (Homo sapiens, UniProt P31749); test: biochemical; settings: read-out: percentage of kinase activity compared to control incubations, PKBΔPH
# Protocol: (§1) Other protein kinases employed in Table 5, were assayed as described previously.
# SAPK2β/p38β2 = SAPK2β/p38β2 (Homo sapiens, UniProt Q15759); test: Kinase panel assay, SAPK2β/p38β2; type: biochemical; settings: 1 μM inhibitor, 0.1 mM ATP, average of triplicate
# AMPK = test: Kinase panel assay, AMPK; type: biochemical; settings: 1 μM inhibitor, 0.1 mM ATP, average of triplicate
# Protocol: as §1
# MKK1 = MKK1 (Homo sapiens, UniProt Q02750); test: Kinase panel assay, MKK1; type: biochemical; settings: 1 μM inhibitor, 0.1 mM ATP, average of triplicate
# PDK1 = target: T2, PDK1 (Homo sapiens, UniProt O15530); test: PDK1 protein kinase assay with PDK1tide substrate and [γ-32P]ATP; type: biochemical; settings: 1 μM inhibitor, 0.1 mM ATP, average of triplicate
# T2 sequence (O15530 1-556): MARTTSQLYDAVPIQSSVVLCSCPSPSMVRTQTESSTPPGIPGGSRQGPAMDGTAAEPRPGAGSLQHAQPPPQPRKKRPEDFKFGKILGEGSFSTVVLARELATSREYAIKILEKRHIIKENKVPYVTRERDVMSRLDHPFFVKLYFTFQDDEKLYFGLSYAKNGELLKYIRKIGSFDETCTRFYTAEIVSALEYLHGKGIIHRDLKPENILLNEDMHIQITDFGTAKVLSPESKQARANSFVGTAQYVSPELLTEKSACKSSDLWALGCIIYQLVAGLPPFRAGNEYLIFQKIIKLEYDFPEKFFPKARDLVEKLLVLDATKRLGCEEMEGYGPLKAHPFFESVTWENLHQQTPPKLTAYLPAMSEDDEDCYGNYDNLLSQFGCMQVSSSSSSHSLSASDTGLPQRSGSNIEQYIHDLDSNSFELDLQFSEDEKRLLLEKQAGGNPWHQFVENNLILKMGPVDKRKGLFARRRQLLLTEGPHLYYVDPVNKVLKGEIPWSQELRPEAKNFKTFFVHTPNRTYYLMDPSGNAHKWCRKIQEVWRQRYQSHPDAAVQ
# Protocol: as §1
# A structure-based sequence alignment of known kinase structures was obtained from, which was used to validate the sequence-based sequence alignment (Table 5).
# NEK6 = NEK6 (Homo sapiens, UniProt Q9HC98); test: Kinase panel assay, NEK6; type: biochemical; settings: 1 μM inhibitor, 0.1 mM ATP, average of triplicate
# [1] = target: S6K-pHM, phosphopeptide comprising the hydrophobic motif of S6K1; test: SPR (BiaCore), rounded value
# [2] = target: S6K-pHM, phosphopeptide comprising the hydrophobic motif of S6K1; test: SPR (BiaCore 3000), biotinylated S6K-pHM on SA chip, GST-PDK1 injected at 2-2150 nM, steady state, apparent Kd
# [3] = target: S6K-pHM, phosphopeptide comprising the hydrophobic motif of S6K1; test: SPR (BiaCore), against wild type PDK1
# PDK1[K76A] = target: T3, PDK1[K76A] (Homo sapiens, UniProt O15530, K76A); test: PDK1 catalytic activity towards T308tide, activation by peptides, PDK1[K76A]; type: biochemical; settings: high peptide concentrations
# T3 construct: made in house; host or cells: human embryonic kidney 293 cells (pEBG2T vector)
# T3 sequence (O15530 1-556 K76A): T2 sequence (O15530 1-556) with K76A
# Protocol: (§2) C. Activation of the indicated forms of PDK1 by 56K-pHM and S6K-HM. PDK1 activity was measured using the peptide substrate (T308tide) in the presence of the indicated concentrations of 56K-pHM (closed circles) and S6K-HM (open circles) as described in the methods. Assays were performed in triplicate and similar results obtained in 2 separate experiments. The results are the average—SD for a single experiment.
# The ability of wild type and mutant PDK1 to phosphorylate the synthetic peptide T308tide ([…] ([Biondi et al., 2000]) (SEQ ID NO:108) was carried out in 30 μl assays containing 100 ng of wild type or mutant PDK1, 50 mM Tris/HCl pH 7.5, 0.1% 13-mercaptoethanol, 10 mM MgCl2, 100 μM [32γ P]ATP (200 cpm/pmol), 0.5 μM microcystin-LR, 1 mM T308tide in the presence or absence of the indicated concentrations of the 56K-pHM peptide ([…](P)YVAPSV) (SEQ ID NO:104) or 56K-HM. peptide ([…]) (SEQ ID NO:105). After incubation for 10 min at 30° C., 25 μl of the resultant mixture was spotted into P81 phosphocellulose paper (2×2 cm) and the papers washed and analysed as described previously for assays of MAP kinase. Control assays were carried out in parallel in which either PDK1, or peptide substrate were omitted; these values were always less than 5% of the activity measured in the presence of these reagents. […]
# wild type PDK1 = target: T4, wild type PDK1 (Homo sapiens, UniProt O15530); test: Surface plasmon resonance (BiaCore) binding of hydrophobic motif peptides, wild type PDK1; parameters: made in house; host or cells: human embryonic kidney 293 cells (pEBG2T vector); settings: surface plasmon resonance
# T4 sequence (O15530 1-556): T2 sequence (O15530 1-556)
# Protocol: Binding and activation of wild type and mutant forms of PDK1 to a phosphopeptide derived from the hydrophobic motif of S6K1. The binding of the wild type (wt) PDK1 and indicated mutants to a phosphopeptide comprising the hydrophobic motif of S6K1 (S6K-pHM: […]*YVAPSV, where T* indicates phospho-threonine, SEQ ID NO:104) was analysed by surface plasmon resonance as described in the Materials and Methods.
# A. The sensor chip SA was coated with 12RUs of the biotinylated S6K-pHM peptide and the binding was analysed following injection of 270 nM wild type PDK1, PDK1 [T148A] and PDK1 [K76A]. […] (data not shown).
# B. As in A. except that binding was analysed over a range of PDK1 concentrations (2-2150 nM). The response level at the steady state binding is plotted versus the log of the PDK1 concentration. The estimated Kd was obtained by fitting the data to a sigmoid curve using Kaleidagraph software.
# Binding was analysed in a BiaCore 3000 system (BiaCore AB, Stevenage, UK). Biotinylated S6K-pHM (Biotin-C12-[…](P)YVAPSV) (SEQ ID NO:104) or the non-phosphorylated form of this peptide S6K-HM was bound to an streptavidin-coated Sensor chip (SA) (12 response units, RU). 30 μl of wild type or the indicated mutant GST-PDK1 were injected at a flow rate of 30 μl/min, in buffer HBS-P (10 mM HEPES pH 7.4, 0.15M NaCl, 0.005% (by vol) polysorbate-20) supplemented with 1 mM DTT. Specific interactions between 56K-pHM and PDK1 proteins were obtained between the concentration range of 2-2150 nM PDK1. Steady state binding was determined at each concentration. Dissociation of PDK1 from the phospho-peptide was monitored over a 1 min period. Regeneration of the sensor chip surface was performed with 1{tilde over (0)} μl injections of 0.05% SDS. […] (RUmax=435). For all PDK1 construct tested, the off rates for S6Kp-HM were high in comparison to those of PIFtide binding with the time taken for 50% dissociation to occur for 56K-pHM is 30s compared to 1000s for PIFtide.
# PDK1[R131A] = target: T5, PDK1[R131A] (Homo sapiens, UniProt O15530, R131A); test: PDK1 catalytic activity towards T308tide, activation by peptides, PDK1[R131A]; type: biochemical; settings: high peptide concentrations
# T5 construct: GST (N); made in house; host or cells: human embryonic kidney 293 cells (pEBG2T vector)
# T5 sequence (O15530 1-556 R131A): T2 sequence (O15530 1-556) with R131A
# Protocol: as §2
# The ability of wild type and mutant PDK1 to phosphorylate the synthetic peptide T308tide ([…] ([Biondi et al., 2000]) (SEQ ID NO:108) was carried out in 30 μl assays containing 100 ng of wild type or mutant PDK1, 50 mM Tris/HCl pH 7.5, 0.1% 13-mercaptoethanol, 10 mM MgCl2, 100 μM [32γ P]ATP (200 cpm/pmol), 0.5 μM microcystin-LR, 1 mM T308tide in the presence or absence of the indicated concentrations of the 56K-pHM peptide ([…](P)YVAPSV) (SEQ ID NO:104) or 56K-HM. peptide ([…]) (SEQ ID NO:105). After incubation for 10 min at 30° C., 25 μl of the resultant mixture was spotted into P81 phosphocellulose paper (2×2 cm) and the papers washed and analysed as described previously for assays of MAP kinase. Control assays were carried out in parallel in which either PDK1, or peptide substrate were omitted; these values were always less than 5% of the activity measured in the presence of these reagents. One Unit of PDK1 activity was defined as that amount required to catalyse the phosphorylation of 1 nmol of the T308tide in 1 min.
# Chain of MSK1 (O75582 whole entry): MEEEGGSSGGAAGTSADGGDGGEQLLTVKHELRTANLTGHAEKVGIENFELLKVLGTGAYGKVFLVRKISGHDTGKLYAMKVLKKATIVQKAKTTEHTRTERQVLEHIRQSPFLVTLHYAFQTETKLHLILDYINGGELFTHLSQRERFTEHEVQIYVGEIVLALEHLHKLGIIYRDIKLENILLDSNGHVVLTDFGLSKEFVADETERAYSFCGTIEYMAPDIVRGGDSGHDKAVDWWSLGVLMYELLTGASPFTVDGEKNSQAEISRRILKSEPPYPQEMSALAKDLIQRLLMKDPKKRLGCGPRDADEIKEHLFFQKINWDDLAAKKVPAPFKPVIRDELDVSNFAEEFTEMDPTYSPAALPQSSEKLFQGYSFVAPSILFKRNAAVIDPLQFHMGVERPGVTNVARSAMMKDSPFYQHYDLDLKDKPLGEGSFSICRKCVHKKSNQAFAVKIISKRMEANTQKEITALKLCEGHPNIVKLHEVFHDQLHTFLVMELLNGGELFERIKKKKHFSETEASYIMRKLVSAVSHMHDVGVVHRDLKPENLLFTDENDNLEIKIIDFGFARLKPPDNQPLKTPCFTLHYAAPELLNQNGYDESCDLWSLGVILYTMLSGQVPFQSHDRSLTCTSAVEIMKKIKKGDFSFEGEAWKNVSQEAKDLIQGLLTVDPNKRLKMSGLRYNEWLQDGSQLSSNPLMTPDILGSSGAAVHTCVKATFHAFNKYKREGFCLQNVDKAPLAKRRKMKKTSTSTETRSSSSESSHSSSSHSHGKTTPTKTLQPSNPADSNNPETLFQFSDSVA
# Chain of MKK1 (Q02750 whole entry, species assumed): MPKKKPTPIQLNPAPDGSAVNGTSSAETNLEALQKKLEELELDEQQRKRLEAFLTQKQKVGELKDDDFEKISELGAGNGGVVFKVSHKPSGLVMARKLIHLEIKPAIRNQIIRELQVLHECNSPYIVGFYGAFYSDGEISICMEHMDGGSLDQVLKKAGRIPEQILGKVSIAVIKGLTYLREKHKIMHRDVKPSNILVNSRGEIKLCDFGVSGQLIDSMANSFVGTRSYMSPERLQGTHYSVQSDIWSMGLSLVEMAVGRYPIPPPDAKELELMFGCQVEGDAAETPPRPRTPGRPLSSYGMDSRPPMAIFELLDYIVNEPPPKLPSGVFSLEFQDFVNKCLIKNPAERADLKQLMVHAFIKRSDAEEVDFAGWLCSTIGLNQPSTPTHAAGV
# Chain of MAPKAP-K1a (Q15418 whole entry, species assumed): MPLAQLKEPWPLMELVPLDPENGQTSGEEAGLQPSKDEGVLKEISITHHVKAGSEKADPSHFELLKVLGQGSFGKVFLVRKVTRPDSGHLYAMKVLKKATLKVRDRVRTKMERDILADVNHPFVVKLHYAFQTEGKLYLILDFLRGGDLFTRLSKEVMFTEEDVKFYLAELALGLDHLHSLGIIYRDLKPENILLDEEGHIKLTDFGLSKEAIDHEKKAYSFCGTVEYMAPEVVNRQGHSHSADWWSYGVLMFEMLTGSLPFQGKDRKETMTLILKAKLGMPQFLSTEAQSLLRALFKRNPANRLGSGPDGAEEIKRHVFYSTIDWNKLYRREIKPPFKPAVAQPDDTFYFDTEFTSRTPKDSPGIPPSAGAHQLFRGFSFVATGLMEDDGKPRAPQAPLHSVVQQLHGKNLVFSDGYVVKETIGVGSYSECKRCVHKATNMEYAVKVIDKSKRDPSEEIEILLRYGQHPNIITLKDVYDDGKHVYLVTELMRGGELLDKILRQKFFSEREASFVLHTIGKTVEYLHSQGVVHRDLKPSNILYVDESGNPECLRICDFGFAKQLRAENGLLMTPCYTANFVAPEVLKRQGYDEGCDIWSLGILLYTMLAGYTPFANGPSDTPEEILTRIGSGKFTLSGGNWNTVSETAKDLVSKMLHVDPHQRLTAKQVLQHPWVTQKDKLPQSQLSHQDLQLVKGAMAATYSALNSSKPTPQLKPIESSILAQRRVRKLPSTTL
# Chain of SGK1 (O00141 whole entry): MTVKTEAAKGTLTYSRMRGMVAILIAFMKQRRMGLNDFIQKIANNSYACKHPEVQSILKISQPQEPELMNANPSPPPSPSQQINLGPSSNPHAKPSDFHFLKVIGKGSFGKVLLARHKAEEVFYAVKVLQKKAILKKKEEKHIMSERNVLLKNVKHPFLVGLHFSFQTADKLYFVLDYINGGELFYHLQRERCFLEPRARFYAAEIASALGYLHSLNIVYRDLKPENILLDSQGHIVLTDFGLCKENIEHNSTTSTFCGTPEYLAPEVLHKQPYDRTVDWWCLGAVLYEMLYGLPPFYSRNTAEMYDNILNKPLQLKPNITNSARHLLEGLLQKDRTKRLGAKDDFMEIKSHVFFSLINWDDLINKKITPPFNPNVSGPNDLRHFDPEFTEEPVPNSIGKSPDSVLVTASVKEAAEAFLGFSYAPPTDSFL
# Chain of NEK6 (Q9HC98 whole entry, species assumed): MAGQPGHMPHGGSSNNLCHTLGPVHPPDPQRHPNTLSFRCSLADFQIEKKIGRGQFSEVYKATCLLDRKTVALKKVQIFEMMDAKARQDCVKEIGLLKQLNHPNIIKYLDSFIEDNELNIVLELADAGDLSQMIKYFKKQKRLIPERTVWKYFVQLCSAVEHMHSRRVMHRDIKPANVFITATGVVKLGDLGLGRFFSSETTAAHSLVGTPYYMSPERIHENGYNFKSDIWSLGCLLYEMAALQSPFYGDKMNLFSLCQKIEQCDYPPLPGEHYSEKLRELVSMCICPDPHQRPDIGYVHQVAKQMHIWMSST
# Chain of CK2 (P68400 whole entry): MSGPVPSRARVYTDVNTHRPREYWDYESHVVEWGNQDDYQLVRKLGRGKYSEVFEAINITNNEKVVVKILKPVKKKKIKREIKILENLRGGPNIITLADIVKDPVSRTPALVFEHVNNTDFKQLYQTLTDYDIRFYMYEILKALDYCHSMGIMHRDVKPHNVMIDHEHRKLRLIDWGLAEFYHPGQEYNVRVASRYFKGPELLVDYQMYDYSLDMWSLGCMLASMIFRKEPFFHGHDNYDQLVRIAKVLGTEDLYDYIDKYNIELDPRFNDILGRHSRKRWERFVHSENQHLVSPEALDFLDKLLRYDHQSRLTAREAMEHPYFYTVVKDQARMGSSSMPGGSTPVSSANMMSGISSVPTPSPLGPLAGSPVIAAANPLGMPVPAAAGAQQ
# Chain of PKBΔPH (P31749 118-480 limits assumed, stated change not applied): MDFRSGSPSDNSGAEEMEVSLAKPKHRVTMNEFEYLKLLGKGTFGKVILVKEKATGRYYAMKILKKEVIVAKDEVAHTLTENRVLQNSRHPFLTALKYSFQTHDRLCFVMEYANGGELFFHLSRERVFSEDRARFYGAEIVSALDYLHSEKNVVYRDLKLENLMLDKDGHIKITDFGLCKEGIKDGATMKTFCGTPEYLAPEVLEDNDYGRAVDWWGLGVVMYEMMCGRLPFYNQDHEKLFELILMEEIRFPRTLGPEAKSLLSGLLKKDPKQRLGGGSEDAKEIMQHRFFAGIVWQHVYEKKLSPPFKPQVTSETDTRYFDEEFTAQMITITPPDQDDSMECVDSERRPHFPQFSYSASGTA
# Chain of PRAK (Q8IW41 whole entry, species assumed): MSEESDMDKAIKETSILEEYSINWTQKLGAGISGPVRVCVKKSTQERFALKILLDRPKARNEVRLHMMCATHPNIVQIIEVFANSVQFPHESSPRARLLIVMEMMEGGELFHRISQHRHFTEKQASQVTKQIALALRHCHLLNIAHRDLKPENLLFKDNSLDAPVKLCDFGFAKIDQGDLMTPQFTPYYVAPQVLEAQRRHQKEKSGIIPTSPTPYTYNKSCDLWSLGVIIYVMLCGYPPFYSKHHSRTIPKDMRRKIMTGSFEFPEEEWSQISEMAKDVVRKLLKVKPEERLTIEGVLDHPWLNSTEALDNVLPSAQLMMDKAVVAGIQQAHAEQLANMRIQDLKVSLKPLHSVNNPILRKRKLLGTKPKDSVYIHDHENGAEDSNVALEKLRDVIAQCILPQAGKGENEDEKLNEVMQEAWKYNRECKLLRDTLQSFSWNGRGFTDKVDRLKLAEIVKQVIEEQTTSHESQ
# Chain of CSK (P41240 whole entry, species assumed): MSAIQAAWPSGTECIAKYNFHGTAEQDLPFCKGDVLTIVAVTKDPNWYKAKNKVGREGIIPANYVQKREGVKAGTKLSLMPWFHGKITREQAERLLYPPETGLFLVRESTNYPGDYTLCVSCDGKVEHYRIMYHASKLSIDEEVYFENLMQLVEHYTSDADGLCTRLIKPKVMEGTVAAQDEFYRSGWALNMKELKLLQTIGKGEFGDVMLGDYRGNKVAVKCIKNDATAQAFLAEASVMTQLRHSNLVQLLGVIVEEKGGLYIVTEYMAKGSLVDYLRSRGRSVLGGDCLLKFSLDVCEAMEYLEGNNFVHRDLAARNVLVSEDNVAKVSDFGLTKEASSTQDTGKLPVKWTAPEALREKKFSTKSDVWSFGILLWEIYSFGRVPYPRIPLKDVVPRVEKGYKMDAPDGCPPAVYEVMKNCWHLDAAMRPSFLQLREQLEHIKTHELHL
# Chain of JNKSAPK1c (P45983 whole entry): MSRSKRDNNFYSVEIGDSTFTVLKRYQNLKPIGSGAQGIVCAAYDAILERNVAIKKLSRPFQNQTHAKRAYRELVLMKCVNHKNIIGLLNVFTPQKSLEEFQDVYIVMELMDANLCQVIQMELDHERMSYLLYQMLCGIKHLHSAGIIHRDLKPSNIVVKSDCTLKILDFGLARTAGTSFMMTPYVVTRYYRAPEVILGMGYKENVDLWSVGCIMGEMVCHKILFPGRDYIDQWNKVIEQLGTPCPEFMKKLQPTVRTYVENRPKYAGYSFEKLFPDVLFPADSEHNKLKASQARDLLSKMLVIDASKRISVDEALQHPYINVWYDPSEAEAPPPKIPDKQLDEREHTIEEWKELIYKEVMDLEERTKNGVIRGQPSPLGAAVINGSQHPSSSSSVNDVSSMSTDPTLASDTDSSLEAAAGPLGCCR
molecule,measurement,setting,value
"CN[C@@H]1C[C@H]2O[C@@](C)([C@@H]1OC)n1c3ccccc3c3c4c(c5c6ccccc6n2c5c31)C(=O)NC4 [STO, staurosporine]","percentage of kinase activity compared to control incubations, SGK1",SGK1,51 ± 4%
same,"percentage of kinase activity compared to control incubations, CHK1",CHK1,3 ± 1%
same,"percentage of kinase activity compared to control incubations, MAPKAP-K1a",MAPKAP-K1a,18 ± 10%
same,"percentage of kinase activity compared to control incubations, SAPK4/p38δ",SAPK4/p38δ,40 ± 5%
same,"percentage of kinase activity compared to control incubations, ROCK-II",ROCK-II,9 ± 5%
same,"percentage of kinase activity compared to control incubations, CK2",CK2,95 ± 4%
same,"percentage of kinase activity compared to control incubations, CSK",CSK,25 ± 8%
same,"percentage of kinase activity compared to control incubations, JNKSAPK1c",JNKSAPK1c,91 ± 3%
same,"percentage of kinase activity compared to control incubations, SAPK2α/p38",SAPK2α/p38,76 ± 4%
same,"percentage of kinase activity compared to control incubations, MSK1",MSK1,1 ± 0%
same,"percentage of kinase activity compared to control incubations, MSK1",MSK1; listed as staurosporine,abolished
same,"percentage of kinase activity compared to control incubations, PRAK",PRAK,48 ± 1%
same,"percentage of kinase activity compared to control incubations, CK1",CK1,95 ± 11%
same,remaining activity at 1 µM,PKBΔPH,8 ± 2%
same,"percentage of kinase activity compared to control incubations, SAPK2β/p38β2",SAPK2β/p38β2,84 ± 11%
same,"percentage of kinase activity compared to control incubations, AMPK",AMPK,0 ± 0%
same,"percentage of kinase activity compared to control incubations, MKK1",MKK1,5 ± 8%
same,"percentage of kinase activity compared to control incubations, PDK1",PDK1,5 ± 1%
same,"percentage of kinase activity compared to control incubations, NEK6",NEK6,109 ± 2%
GST-PDK1[K76A] (from UniProt O15530 1-556) (enzyme),Kd,[1],1700 nM
same,Kd,[2],1740 nM
same,fold lower affinity than wild type PDK1,[3],3 fold
S6K-HM: non-phosphorylated S6K-HM peptide (SESANQVFLGFTYVAPSV),activation of PDK1[K76A] by non-phosphorylated peptide,PDK1[K76A],to a similar extent as wild type PDK1
same,binding of wild type PDK1 to peptide,wild type PDK1,No detectable binding; also recorded: not detectably
same,activation of PDK1[R131A] by non-phosphorylated peptide,PDK1[R131A],to a similar extent as wild type PDK1
